Source: patent US12364213B2, “Container for growth of cryo-sprouts” (RÄ FOODS HOLDINGS LLC, priority 2015, dated 2025)

What was measured:
Salmonella spp. = Salmonella spp. cocktail challenge on sprouts grown from soaked seeds (MPN and direct plating); type: cell-based
Procedure: (§1) Isolates used to inoculate cryo-sprouts were grown in pure culture and quantitated in order to determine dilutions required to achieve a target level when inoculated into the product.
(§2) The study encompassed three treatments exposed to two different temperatures over the course of 28 days, with weekly pulls, see Table 1 below.
(§3) Initial counts were determined immediately after inoculation for each treatment on Day 0, and again after incubation at 40° F. for 21 days, and 50° F. for 12 days. Subsequent pulls occurred on a weekly basis from Day 0 (after the 21 days at 40° F. or after 12 days at 50° F.) through Day 28.
(§4) The pulls occurred on Shelf Life Day 0, 7, 14, 21, and 28.
(§5) One milliliter from each of the five Salmonella cultures was combined to form a cocktail. The Listeria monocytogenes and E. coli O157:H7 cultures were similarly combined to form a second and third cocktail. These three cocktails were diluted and added to the trays containing 60 ml of deionized water.
(§6) Plastic trays with membrane were filled with 35 grams of soaked sprout seeds representing each of the three treatment groups.
(§7) Sixty milliliters of deionized water was added to each tray along with a final concentration of approximately 1.0 E+3-1.0 E+4 cfu/ml of each of the three cocktails (Salmonella and Listeria together in one set, and E. coli O157:H7 into another set).
Salmonella samples were serially diluted and spread plated on a Tryptic Soy Agar (TSA) basal layer and capped with XLD, incubated at 95° F. (35° C.) for 2 days. An MPN (Most probable number), consisting of a combination of the three samples, was also set up on each pull day due to the high number of other organisms present in the samples which obscured the direct counts.

L. monocytogenes = L. monocytogenes cocktail challenge on sprouts grown from soaked seeds (MPN and direct plating); type: cell-based, Listeria monocytogenes
Procedure: as §1, §2, §3, §4, §5, §6, §7
Listeria samples were serially diluted and plated on a TSA basal layer and capped with Modified Oxford Medium (MOX), incubated at 95° F. (35° C.) for 2 days. An MPN, consisting of a combination of the three samples, was also set up on each pull day due to the high number of other organisms present in the samples which obscured the direct counts.

E. coli O157:H7 = E. coli O157:H7 cocktail challenge on sprouts grown from soaked seeds (MPN and direct plating); type: cell-based
Procedure: as §1, §2, §3, §4, §5, §6, §7
E. coli O157:H7 samples were serially diluted and plated on a TSA basal layer and capped with EMB, incubated at 95° F. (35° C.) for 2 days. An MPN, consisting of a combination of the three samples, was also set up on each pull day due to the high number of other organisms present in the samples which obscured the direct counts.

total aerobic bacteria = experiment: Aerobic Plate Count at Shelf Life Day 28 on samples grown at 40° F.; type: cell-based
Procedure: Aerobic Plate Counts were also analyzed at Shelf Life Day 28 on the samples grown at 40° F. by plating to Standard Methods Agar and incubated at 95° F. for 2 days to determine the total aerobic bacteria present in the samples.

[1] = tested on: Salmonella, Listeria monocytogenes, and E. coli O157:H7; experiment: Pathogen challenge study, overall impact of soak treatments versus Control; type: cell-based; conditions: seed soak treatments; 40° F. and 50° F.
[2] = grown 12 days at 50° F., held at 40° F.
[3] = grown 12 days at 50° F., Shelf Life Day 0
[4] = grown 12 days at 50° F., Shelf Life Day 7 at 40° F.
[5] = grown 12 days at 50° F., Shelf Life Day 14 at 40° F.
[6] = grown 12 days at 50° F., Shelf Life Day 21 at 40° F.
[7] = grown 12 days at 50° F., Shelf Life Day 28 at 40° F.
[8] = grown 21 days at 40° F., held at 40° F. through Shelf Life Day 28, from Day 0 to below detectable limit
[9] = grown 21 days at 40° F., held at 40° F., end of study, below detectable limit
[10] = grown 21 days at 40° F., Shelf Life Day 0 at 40° F.
[11] = grown 21 days at 40° F., Shelf Life Day 7 at 40° F.
[12] = grown 21 days at 40° F., Shelf Life Day 14 at 40° F.
[13] = grown 21 days at 40° F., Shelf Life Day 21 at 40° F.
[14] = grown 21 days at 40° F., Shelf Life Day 28 at 40° F.
[15] = grown 12 days at 50° F., Shelf Life Day 28
[16] = grown 21 days at 40° F., Shelf Life Day 21
[17] = grown 21 days at 40° F., Shelf Life Day 28

CC(=O)O [Acetic Acid, acetic acid]
Salmonella spp. counts at each pull date via MPN and plating methods (Salmonella spp.; [2]): 1.4-3 logs
Log10 (Salmonella MPN/g) or (CFU) (Salmonella spp.; [3]): 3.04 Log10 MPN/g
Salmonella (MPN/g) or (CFU) (Salmonella spp.; [3]): 1,100 MPN/g
Log10 (Salmonella MPN/g) or (CFU) (Salmonella spp.; [4]): 2.63 Log10 MPN/g
Salmonella (MPN/g) or (CFU) (Salmonella spp.; [4]): 430 MPN/g
Log10 (Salmonella MPN/g) or (CFU) (Salmonella spp.; [5]): 2.46 Log10 MPN/g
Salmonella (MPN/g) or (CFU) (Salmonella spp.; [5]): 290 MPN/g
Log10 (Salmonella MPN/g) or (CFU) (Salmonella spp.; [6]): 2.04 Log10 MPN/g
Salmonella (MPN/g) or (CFU) (Salmonella spp.; [6]): 110 MPN/g
Log10 (Salmonella MPN/g) or (CFU) (Salmonella spp.; [7]): 1.63 Log10 MPN/g
Salmonella (MPN/g) or (CFU) (Salmonella spp.; [7]): 43 MPN/g
Salmonella spp. overall log reduction (Salmonella spp.; [8]): 3.87 logs
Salmonella spp. level, direct plating (Salmonella spp.; [9]): < 10 cfu/g
Log10 (Salmonella MPN/g) or (CFU) (Salmonella spp.; [10]): 2.18 Log10 MPN/g
Salmonella (MPN/g) or (CFU) (Salmonella spp.; [10]): 150 MPN/g
Log10 (Salmonella MPN/g) or (CFU) (Salmonella spp.; [11]): 0.96 Log10 MPN/g
Salmonella (MPN/g) or (CFU) (Salmonella spp.; [11]): 9.2 MPN/g
Log10 (Salmonella MPN/g) or (CFU) (Salmonella spp.; [12]): <−0.5 Log10 MPN/g
Salmonella (MPN/g) or (CFU) (Salmonella spp.; [12]): <0.3 MPN/g
Log10 (Salmonella MPN/g) or (CFU) (Salmonella spp.; [13]): <−0.5 Log10 MPN/g
Salmonella (MPN/g) or (CFU) (Salmonella spp.; [13]): <0.3 MPN/g
Log10 (Salmonella MPN/g) or (CFU) (Salmonella spp.; [14]): <−0.5 Log10 MPN/g
Salmonella (MPN/g) or (CFU) (Salmonella spp.; [14]): < 0.3 MPN/g
Salmonella (MPN/g) or (CFU) (Salmonella spp.; grown 21 days at 40° F., Shelf Life Day 28 at 40° F., listed as Acetic): <0.3 MPN/g
L. monocytogenes increase through Shelf Life Day 21 (L. monocytogenes; [2]): approximately 2.5 logs
L. monocytogenes (MPN/g) or (CFU) (L. monocytogenes; [3]): > 1,100 MPN/g
Log10 (L. monocytogenes MPN/g) or (CFU) (L. monocytogenes; [3]): 3.04 Log10 MPN/g
L. monocytogenes (MPN/g) or (CFU) (L. monocytogenes; [4]): 24,000 MPN/g
Log10 (L. monocytogenes MPN/g) or (CFU) (L. monocytogenes; [4]): 4.38 Log10 MPN/g
L. monocytogenes (MPN/g) or (CFU) (L. monocytogenes; [5]): > 110,000 MPN/g
Log10 (L. monocytogenes MPN/g) or (CFU) (L. monocytogenes; [5]): 5.04 Log10 MPN/g
L. monocytogenes average, direct plating (L. monocytogenes; grown 12 days at 50° F., Shelf Life Day 21): 2.1 E+5 cfu/g
L. monocytogenes (MPN/g) or (CFU) (L. monocytogenes; [6]): 2.4 E+5 MPN/g
Log10 (L. monocytogenes MPN/g) or (CFU) (L. monocytogenes; [6]): 5.38 Log10 MPN/g
L. monocytogenes (MPN/g) or (CFU) (L. monocytogenes; grown 12 days at 50° F., Shelf Life Day 21 at 40° F., listed as Acetic): 240,000 MPN/g
L. monocytogenes log increase, direct plating method (L. monocytogenes; [15]): 5.14 logs
L. monocytogenes overall log increase, MPN method (L. monocytogenes; grown 12 days at 50° F., Shelf Life Day 28, from inoculated controls): 1.82 logs
L. monocytogenes direct counts, avg. log value (L. monocytogenes; grown 12 days at 50° F., Shelf Life Day 28, obscured by background flora, possible overestimation): 7.95
L. monocytogenes (MPN/g) or (CFU) (L. monocytogenes; [7]): 43,000 MPN/g
Log10 (L. monocytogenes MPN/g) or (CFU) (L. monocytogenes; [7]): 4.63 Log10 MPN/g
L. monocytogenes (MPN/g) or (CFU) (L. monocytogenes; [10]): 230 MPN/g
Log10 (L. monocytogenes MPN/g) or (CFU) (L. monocytogenes; [10]): 2.36 Log10 MPN/g
L. monocytogenes (MPN/g) or (CFU) (L. monocytogenes; [11]): 4.3 MPN/g
Log10 (L. monocytogenes MPN/g) or (CFU) (L. monocytogenes; [11]): 0.63 Log10 MPN/g
L. monocytogenes log increase, direct plating (L. monocytogenes; grown 21 days at 40° F., Shelf Life Day 14): 1.33 logs
L. monocytogenes direct plating counts, average (L. monocytogenes; grown 21 days at 40° F., Shelf Life Day 14, 21, and 28): approximately 4 logs
L. monocytogenes (MPN/g) or (CFU) (L. monocytogenes; [12]): > 1,100 MPN/g
Log10 (L. monocytogenes MPN/g) or (CFU) (L. monocytogenes; [12]): 3.04 Log10 MPN/g
L. monocytogenes direct plating count (L. monocytogenes; [16]): 4.04 logs
L. monocytogenes log increase, direct plating (L. monocytogenes; [16]): 1.23 logs
L. monocytogenes (MPN/g) or (CFU) (L. monocytogenes; [13]): 930 MPN/g
Log10 (L. monocytogenes MPN/g) or (CFU) (L. monocytogenes; [13]): 2.97 Log10 MPN/g
L. monocytogenes direct count log value (L. monocytogenes; [17]): 4.50 logs
L. monocytogenes log increase, direct plating (L. monocytogenes; [17]): 1.69 logs
L. monocytogenes overall log increase, MPN method (L. monocytogenes; [17]): > 0.23 logs
L. monocytogenes (MPN/g) or (CFU) (L. monocytogenes; [14]): > 1,100 MPN/g
Log10 (L. monocytogenes MPN/g) or (CFU) (L. monocytogenes; [14]): 3.04 Log10 MPN/g
E. coli O157:H7 avg. log values for each pull day (E. coli O157:H7; [2]): 3-5 logs
E. coli O157:H7 (MPN/mL) or (CFU) (E. coli O157:H7; [3]): 1,100 MPN/mL
Log10 (E. coli O157:H7 MPN/g) or (CFU) (E. coli O157:H7; [3]): 3.04 Log10 MPN/g
E. coli O157:H7 (MPN/mL) or (CFU) (E. coli O157:H7; [4]): 110,000 MPN/mL
Log10 (E. coli O157:H7 MPN/g) or (CFU) (E. coli O157:H7; [4]): 5.04 Log10 MPN/g
E. coli O157:H7 (MPN/mL) or (CFU) (E. coli O157:H7; [5]): 46,000 MPN/mL
Log10 (E. coli O157:H7 MPN/g) or (CFU) (E. coli O157:H7; [5]): 4.66 Log10 MPN/g
E. coli O157:H7 (MPN/mL) or (CFU) (E. coli O157:H7; [6]): 930 MPN/mL
Log10 (E. coli O157:H7 MPN/g) or (CFU) (E. coli O157:H7; [6]): 2.97 Log10 MPN/g
E. coli O157:H7 level, MPN method (E. coli O157:H7; [15]): 2,400 MPN/g
E. coli O157:H7 overall log reduction, MPN method (E. coli O157:H7; grown 12 days at 50° F., Shelf Life Day 28, from Day 0 inoculated control): 1.73 logs
E. coli O157:H7 (MPN/mL) or (CFU) (E. coli O157:H7; [7]): 2,400 MPN/mL
Log10 (E. coli O157:H7 MPN/g) or (CFU) (E. coli O157:H7; [7]): 3.38 Log10 MPN/g
E. coli O157:H7 overall log reduction (E. coli O157:H7; [8]): 4.16 logs
E. coli O157:H7 level, MPN (E. coli O157:H7; [9]): < 0.3 MPN/g
E. coli O157:H7 level, direct plating (E. coli O157:H7; [9]): < 10 cfu/g
E. coli O157:H7 (MPN/mL) or (CFU) (E. coli O157:H7; [10]): <30 MPN/mL
Log10 (E. coli O157:H7 MPN/g) or (CFU) (E. coli O157:H7; [10]): 0.95 Log10 MPN/g
E. coli O157:H7 (MPN/mL) or (CFU) (E. coli O157:H7; [11]): 9.3 MPN/mL
Log10 (E. coli O157:H7 MPN/g) or (CFU) (E. coli O157:H7; [11]): 0.97 Log10 MPN/g
E. coli O157:H7 (MPN/mL) or (CFU) (E. coli O157:H7; [12]): 0.30 MPN/mL
Log10 (E. coli O157:H7 MPN/g) or (CFU) (E. coli O157:H7; [12]): −0.5 Log10 MPN/g
E. coli O157:H7 (MPN/mL) or (CFU) (E. coli O157:H7; [13]): <0.3 MPN/mL
Log10 (E. coli O157:H7 MPN/g) or (CFU) (E. coli O157:H7; [13]): <−0.5 Log10 MPN/g
E. coli O157:H7 (MPN/mL) or (CFU) (E. coli O157:H7; [14]): <0.3 MPN/mL
Log10 (E. coli O157:H7 MPN/g) or (CFU) (E. coli O157:H7; [14]): <−0.5 Log10 MPN/g
Aerobic Plate Count, average (total aerobic bacteria): 8.1 E+8 cfu/g
Aerobic Plate Count, avg. log value (total aerobic bacteria): 8.91
impact on the counts in comparison to the Control treatment [1]: did not appear to have a significant impact
